Key:
Assay in all cases: combination Emax (second highest fraction inhibited in the dose matrix, 72 h); higher = more inhibition; extreme values may be limits of the assay
[1] = test system: AN3-CA (Endometrial Carcinoma)
Summary of the method: (§1)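 Cell lines grown in DMEM/F12 or RPMI with 10% FBS were plated in 1536-well plates and held 24 hours at 37°C, 5% CO2 before 72 hours of exposure to two-drug dose matrices, with DMSO typically at 0.2%. CellTiter-Glo 2.0 luminescence gave viability, which was converted to inhibition. Vehicle wells were set to 0 and blank wells to 1. Combination Emax is the second-highest inhibition in the matrix, and Bliss excess is the observed combination effect minus the expected EA + EB − EA·EB, where EA and EB are the single-agent effects.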

[2] = test system: BALL-1 (B-Lymphoblastic Leukemia)
Summary of the method: as §1

[3] = test system: Becker (Low Grade Glioma)
Summary of the method: as §1

CHL-1 (Melanoma) = test system: CHL-1 (Melanoma)
Summary of the method: as §1

[4] = test system: CML-T1 (Chronic Myelogenous Leukemia)
Summary of the method: as §1

[5] = test system: COLO-684 (Endometrial Carcinoma)
Summary of the method: as §1

[6] = test system: Calu-6 (Non-Small Cell Lung Carcinoma)
Summary of the method: as §1

[7] = test system: EB-3 (Burkitt's Lymphoma)
Summary of the method: as §1

ES-2 (Ovarian Carcinoma) = test system: ES-2 (Ovarian Carcinoma)
Summary of the method: as §1

[8] = test system: FLO-1 (Esophageal Adenocarcinoma)
Summary of the method: as §1

[9] = test system: HSC-3 (Oral Cavity Carcinoma)
Summary of the method: as §1

KYM-1 (Rhabdomyosarcoma) = test system: KYM-1 (Rhabdomyosarcoma)
Summary of the method: as §1

[10] = test system: NCI-H1563 (Lung Adenocarcinoma)
Summary of the method: as §1

[11] = test system: NCI-H1623 (Lung Adenocarcinoma)
Summary of the method: as §1

[12] = test system: NCI-H1755 (Lung Adenocarcinoma)
Summary of the method: as §1

[13] = test system: RPMI-8866 (Chronic Myelogenous Leukemia)
Summary of the method: as §1

RT4 (Bladder Carcinoma) = test system: RT4 (Bladder Carcinoma)
Summary of the method: as §1

[14] = test system: SJRH30 (Rhabdomyosarcoma)
Summary of the method: as §1

[15] = test system: SNU-175 (Colorectal Carcinoma)
Summary of the method: as §1

[16] = test system: SW684 (Other Solid Carcinomas)
Summary of the method: as §1

SMILES	combination Emax [1]	combination Emax [2]	combination Emax [3]	combination Emax (CHL-1 (Melanoma))	combination Emax [4]	combination Emax [5]	combination Emax [6]	combination Emax [7]	combination Emax (ES-2 (Ovarian Carcinoma))	combination Emax [8]	combination Emax [9]	combination Emax (KYM-1 (Rhabdomyosarcoma))	combination Emax [10]	combination Emax [11]	combination Emax [12]	combination Emax [13]	combination Emax (RT4 (Bladder Carcinoma))	combination Emax [14]	combination Emax [15]	combination Emax [16]
CCN(CCO)CCCOc1ccc2c(Nc3cc(CC(=O)Nc4cccc(F)c4)[nH]n3)ncnc2c1 [AZD2811] + C[C@@H]1COCCN1C2=NC(=NC(=C2)C3(CC3)[S@](=N)(=O)C)C4=C5C=CNC5=NC=C4 [AZD6738] (first compound max 1 µM, 7x7, partner max 10 µM)	0.48	0.984	0.586	0.805	0.934	0.748	0.767	0.644	0.728	0.6	0.454	0.762	0.206	0.6	0.788	0.955	0.429	0.839	0.578	0.385
CCN(CCO)CCCOc1ccc2c(Nc3cc(CC(=O)Nc4cccc(F)c4)[nH]n3)ncnc2c1 [AZD2811] + O=C(c1cc(Cc2n[nH]c(=O)c3ccccc23)ccc1F)N1CCN(C(=O)C2CC2)CC1 [Olaparib] (first compound max 1 µM, 7x7, partner max 10 µM)	0.282	0.848	0.12	0.24	0.829	0.291	0.239	0.282	0.192	0.377	0.351	0.402	0.158	0.442	0.576	0.69	0.377	0.255	0.611	0.265
CN(CCO)CC[C@H](CSc1ccccc1)Nc1ccc(S(=O)(=O)NC(=O)c2ccc(N3CCC([C@@H](O)c4ccccc4-c4ccc(Cl)cc4)CC3)cc2)cc1S(=O)(=O)C(F)(F)F [AZD4320] + C1CN(CCC1(C(=O)N[C@@H](CCO)C2=CC=C(C=C2)Cl)N)C3=NC=NC4=C3C=CN4 [Capivasertib] (first compound max 1 µM, 7x7, partner max 3 µM)	0.625	1	0.298	0.0871	0.977	0.447	0.448	0.191	0.131	0.343	0.53	0.0568	0.389	0.278	0.303	0.641	0.144	0.427	0.501	0.449
CN(CCO)CC[C@H](CSc1ccccc1)Nc1ccc(S(=O)(=O)NC(=O)c2ccc(N3CCC([C@@H](O)c4ccccc4-c4ccc(Cl)cc4)CC3)cc2)cc1S(=O)(=O)C(F)(F)F [AZD4320] + C=CCn1c(=O)c2cnc(Nc3ccc(N4CCN(C)CC4)cc3)nc2n1-c1cccc(C(C)(C)O)n1 [AZD1775] (first compound max 1 µM, partner max 1 µM)	0.468	1	0.261	0.703	1	0.763	0.928	0.681	0.722	0.977	0.707	0.617	0.26	0.608	0.854	1	0.629	0.93	0.717	0.381
CN(CCO)CC[C@H](CSc1ccccc1)Nc1ccc(S(=O)(=O)NC(=O)c2ccc(N3CCC([C@@H](O)c4ccccc4-c4ccc(Cl)cc4)CC3)cc2)cc1S(=O)(=O)C(F)(F)F [AZD4320] + CCN(CCO)CCCOc1ccc2c(Nc3cc(CC(=O)Nc4cccc(F)c4)[nH]n3)ncnc2c1 [AZD2811] (first compound max 1 µM, 7x7, partner max 1 µM)	0.474	1	0.224	0.73	0.994	0.178	0.801	0.241	0.168	0.699	0.664	0.125	0.188	0.197	0.43	0.952	1	0.503	0.996	0.158
CN(CCO)CC[C@H](CSc1ccccc1)Nc1ccc(S(=O)(=O)NC(=O)c2ccc(N3CCC([C@@H](O)c4ccccc4-c4ccc(Cl)cc4)CC3)cc2)cc1S(=O)(=O)C(F)(F)F [AZD4320] + CN(C)CCCOc1ccc(-c2ccc3ncc4c(c3c2)n(C2CCOCC2)c(=O)n4C)cn1 [AZD0156] (first compound max 1 µM, 7x7, partner max 1 µM)	0.27	1	0.0869	0.113	0.987	0.148	0.395	0.387	0.15	0.386	0.145	0.14	0.321	0.191	0.229	0.552	0.266	0.147	0.467	0.19
